Measured values: patent US6911432B2, “Drugs, foods or drinks with the use of algae-derived physiologically active substances” (priority 1997, dated 2005)

Assays:
[1] = system: spleen lymphocytes; assay: mixed lymphocyte reaction, 3H-thymidine uptake; assay type: cell-based, BALB/c mouse and C57BL/6 mouse
Experimental: Spleens were taken out from a BALB/c mouse (Nippon SLC; male, 6 weeks old) and a C57BL/6 mouse (Nippon SLC; male, 6 weeks old) and spleen lymphocytes were obtained by the above-described method. Each cell suspension was adjusted to a concentration of 2×10^6 cell/ml, 100 μl portions from respective suspensions were mixed together and seeded in a 96 well microtiter plate. Agarobiose at varying concentration was added to the wells other than the control well, and the plate was incubated at 37° C. for 4 days in a carbon dioxide incubator. After incubation, 1 μCi of ^3H-thymidine was added to each well, and the plate was incubated for additional 1 day. Its uptake into cells was measured using a liquid scintillation counter.
That is, FIG. 35 illustrates the relation between the agarobiose concentration and the ^3H-thymidine uptake in the mixed lymphocyte reaction. The horizontal axis represents the agarobiose concentration and the vertical axis represents ^3H-thymidine uptake (cpm). The open bar and the shaded bar represent ^3H-thymidine uptake in case where cells from either one of the lines were used independently, and in case where mixed cells from both of the lines were used, respectively. […] Thus, the inhibitory activity against lymphocyte activation of agarobiose has been recognized.

[2] = system: RAW 264.7 cells; assay: NO production induced by LPS, NO2- concentration in medium; assay type: cell-based, mouse; settings: RAW 264.7; 10 μl of 5000 to 50 μM solution per 500 μl well; 12 hours
Experimental: (1) RAW 264.7 cells (ATCC TIB 71) were suspended in phenol red-free Dulbecco's modified Eagle's medium containing 10% fetal bovine serum (manufactured by Gibco) and 2 mM L-glutamine (manufactured by Life Technologies Oriental, 25030-149) at a concentration of 3×10^5 cells/ml, and 500 μl portions thereof were seeded to respective wells of a 48-well microtiter plate and incubated at 37° C. for 12 hours in the presence of 5% CO2. To each well were added 10 μl of 25 μg/ml lipopolysaccharide (LPS, manufactured by Sigma, L-2012) and 10 μl of aqueous 5000, 1500, 500, 150 or 50 μM agarobiose or neoagarobiose (manufactured by Sigma, G4410) solution, and the plate was incubated for additional 12 hours. Then, concentration of NO2^− produced by oxidation of NO in the medium was measured. As control groups, a group to which LPS was not added and a group to which agarobiose or neoagarobiose was not added were provided.
After incubating as described above, 100 μl of 4% Greece reagent (manufactured by Sigma, G4410) was added to 100 μl of the medium, and the mixture was allowed to stand for 15 minutes at room temperature. Then, the absorbance at 490 nm was measured. NO2^− concentration in the medium was calculated with reference to a calibration curve prepared by using NaNO2 at given concentrations dissolved in the same medium as that described above. All the measurements were carried out in triplicate.
(2) A suspension of 5 g of commercially available agar (Ina agar type S-7, manufactured by Ina Shokuhin Kogyo) in 45 ml of 0.1 N HCl was treated at 95° C. for 13 minutes. After cooling to room temperature, the suspension was neutralized with NaOH and filtered through 0.22 μm MILLEX-GP filter (manufactured by Milipore, SLGPR25LS). […] Namely, 10 μl of 25 μg/ml LPS and 10 μl of a 20-fold dilution of the sample mentioned above were added to wells of a 48 well microtiter plate containing RAW264.7 cells which had been incubated in the wells. The measurement was carried out with the culture medium. As control groups, a group to which LPS was not added, a group to which a sample was not added and a group to which 2.5 mM citric acid was added were provided. All the measurement were carried out in duplicate.

[3] = system: RAW 264.7 cells; assay: NO production induced by LPS and IFN-γ after pre-incubation with sample; assay type: cell-based, mouse; settings: 10 μl of 5,000 μM solution, pre-incubation 1, 2, 4 or 6 hours before stimulation
Experimental: (4) RAW 264.7 cells were suspended in the Dulbecco's modified Eagle's medium described in Example 20-(1) at a concentration of 3×10^5 cells/ml, and 500 μl portions thereof were placed in respective wells of a 48 well microtiter plate. The plate was incubated for 37° C. for 10 hours in the presence of 5 % carbon dioxide. To the wells was added 10 μl of aqueous 5,000 μM agarobiose solution and incubated for additional 1, 2, 4 or 6 hours. Then, the culture supernatant was removed from the well and to each well were added 500 μl of fresh Dulbecco's modified Eagle's medium and then 10 μl of aqueous 2.5 μg/ml LPS and aqueous 800 U/ml interferon-Υ (IFN-Υ, sold by Cosmobio, GZM-MG-IFN) solution. The plate was incubated for 1 hour. Then, the culture supernatant was removed from the well and to each well was added 500 μl of fresh Dulbecco's modified Eagle's medium and the plate was incubated for additional 16 hours. The concentration of NO2^− produced by oxidation of NO in the medium was measured according to the same manner as that described in Example 20-(1). As control groups, a group to which neither LPS nor IFN-Υ was added and a group to which agarobiose was not added were provided. All the measurements were carried out in duplicate.

[4] = system: Mouse melanoma cell B16BL6; assay: inhibition of melanin production, absorbance at 400 nm; assay type: cell-based
Experimental: Mouse melanoma cell B16BL6 suspended in RPMI-1640 containing 10% FBS was placed in a 6 well plate at a concentration of 5×10^4 cells/2 ml medium/well and incubated at 37° C. On the 2nd day, 100 μl of agarobiose solution (2 mg/ml to 0.2 mg/ml) was added thereto, and on the 7th day, the medium was changed and, at the same time, 100 μl of agarobiose solution (2 mg/ml to 0.2 mg/ml) was added thereto. On the 8th day, the cells were collected, DNA, RNA and protein were decomposed, and then the absorbance at 400 nm was measured to examine an activity of inhibiting melanin production.
Namely, after removing the medium by suction, 0.3 ml of 0.25% trypsin dissolved in 20 mM EDTA solution was added to each well and the plate was incubated at 37° C. for 10 minutes. Then, 2 ml of the fresh medium was added to the well and the cells were suspended. The suspension was collected into a test tube. The medium was then removed by centrifugation and the cells were suspended in 2 ml of PBS and centrifuged again. After removing the supernatant, 30 μl of 50 mM sodium acetate buffer (pH 5.0) containing 5 mM manganese chloride and 1 μl of 70,000 U/ml DNase I (manufactured by Takara Shuzo) were added to the cells and thoroughly mixed. The mixture was incubated at 37° C. for 2 hours to decompose DNA. Then, 1 μl of 10 mg/ml ribonuclease A (manufactured by Sigma) was added to the mixture and the resultant mixture was incubated at 50° C. for 1 hour to decompose RNA. Finally, 100 mM Tris-hydrochloric acid buffer (pH 7.8) containing 100 μg/ml proteinase K (manufactured by Sigma), 0.1% Triton x and 10 mM EDTA was added thereto to make the total volume up to 200 μl for 2×10^6 cells, and the mixture was incubated at 37° C. for 16 hours and then the absorbance at 400 nm was measured.

OC[C@H]1O[C@@H](O[C@H]2[C@H]3OC[C@@H]2OC(O)[C@H]3O)[C@H](O)[C@@H](O)[C@H]1O (mixture of isomers) [Agarobiose, agarobiose]
inhibitory activity against mixed lymphocyte reaction (in words) [1]: dose-dependent inhibitory activity | inhibition of lymphocytes activation by stimulation with an alloantigen ([1]; 10 μg/ml): almost completely inhibits | inhibition of NO production induced by LPS (in words) [2]: dose-dependently inhibited | inhibition of NO production induced by LPS and IFN-γ (in words) [3]: the longer the pre-incubation time was, the higher the inhibition | Absorbance at 400 nm mean ([4]; agarobiose 10 μg/ml): 0.521 | Absorbance at 400 nm mean ([4]; agarobiose 50 μg/ml): 0.392 | Absorbance at 400 nm mean ([4]; agarobiose 100 μg/ml): 0.383 | activity of inhibiting melanin production (in words) ([4]; agarobiose at 50 and 100 μg/ml): recognized
